Reference: patent US20050106111A1, “Compositions and methods for reducing dental plaque” (Aphios Corporation, priority 2003, published 2005)
Converted amounts (≈) assume the structure as drawn. Where two headings read alike, the source gives them in different places.

Columns and labels:
[1] = clinical trials; cited from earlier work
Streptococcus mutans [2] = experiment: Minimum bactericidal concentration (MBC) against S. mutans; type: cell-based
Source text: (§1) Minimum inhibitory concentrations (MIC) can be determined to identify the minimum concentration of a composition needed to inhibit the growth of the target organism using methods well known to those skilled in the art. Minimum bactericidal concentrations (MBC) can be determined to identify the minimum concentration of a composition needed to kill the target organism using methods well known to those skilled in the art. The MBC can be determined from the same plates set up for the MIC.
(§2) Cultures of Actinomyces viscosus, Streptococcus mutans, and Actinobacillus actinomycete-mcomitans were obtained from the American Type Culture Collection (ATCC) following instructions provided by ATCC. Frozen stocks of each bacteria were prepared by adding 10% (v/v) volume of glycerol to an overnight culture; aliquots of the resulting suspension were then frozen at −80° C.
(§3) Minimum inhibitory concentrations (MIC) were determined to identify the minimum concentration of a compound needed to inhibit the growth of the target organism. Minimum bactericidal concentrations (MBC) were determined to identify the minimum concentration of a compound needed to kill the target organism. The MBC was determined from the same plates set up for the MIC.

Streptococcus mutans [3] = experiment: Minimum inhibitory concentration (MIC) against S. mutans; type: cell-based
Source text: as §1, §2, §3

A. actinomycetemcomitans [4] = experiment: Minimum inhibitory concentration (MIC) against A. actinomycetemcomitans; type: cell-based; conditions: Aggregatibacter actinomycetemcomitans
Source text: as §1, §2, §3

A. actinomycetemcomitans [5] = experiment: Minimum bactericidal concentration (MBC) against A. actinomycetemcomitans; type: cell-based; conditions: Aggregatibacter actinomycetemcomitans
Source text: as §1, §2, §3

Actinomyces viscosus [6] = experiment: Minimum bactericidal concentration (MBC) against A. viscosus; type: cell-based
Source text: as §1, §2, §3

Actinomyces viscosus [7] = experiment: Minimum inhibitory concentration (MIC) against A. viscosus; type: cell-based
Source text: as §1, §2, §3

A. viscosus = experiment: Biofilm assay, bactericidal activity against A. viscosus in a biofilm on a solid support; type: cell-based; conditions: 125 μg/mL, 1 hour incubation in test agent
Description: (§4) A biofilm assay can be conducted to assess the bactericidal activity of the target compositions when the challenge organisms are contained within a biofilm. The semi-purified Vibrio gazogenes extract can be assayed for bactericidal activity against orally-relevant microbes contained in a biofilm grown on a solid support.
as §4, with “was” for “can be”, “access” for “assess”, “compounds” for “compositions”

S. mutans = experiment: Biofilm assay, bactericidal activity against S. mutans in a biofilm on a solid support; type: cell-based; conditions: 125 μg/mL, 1 hour incubation in test agent
Description: as §4
as §4, with “was” for “can be”, “access” for “assess”, “compounds” for “compositions”

A. actinomycetemcomitans [8] = experiment: Biofilm assay, bactericidal activity against A. actinomycetemcomitans in a biofilm on a solid support; type: cell-based; conditions: 125 μg/mL, 1 hour incubation in test agent
Description: as §4
as §4, with “was” for “can be”, “access” for “assess”, “compounds” for “compositions”

mice = conditions: cited from earlier work

Molecule: N=C(NCCCCCCNC(=N)NC(=N)Nc1ccc(Cl)cc1)NC(=N)Nc1ccc(Cl)cc1.O=C(O)[C@H](O)[C@@H](O)[C@H](O)[C@H](O)CO.O=C(O)[C@H](O)[C@@H](O)[C@H](O)[C@H](O)CO [CHG, chlorhexidine digluconate]
- reduced gingivitis [1]: 50-80%

Molecule: [H]/N=C(\N/C(=N/[H])NCCCCCCNC(=N)NC(=N)Nc1ccc(Cl)cc1)Nc1ccc(Cl)cc1 [Chlorhexidine, chlorhexidine]
- MBC (Streptococcus mutans [2]; S. mutans, read-out: MBC): 1.95 µg/mL (≈ 3.86 µM)
- MIC (Streptococcus mutans [3]; S. mutans, read-out: MIC): 1.95 µg/mL (≈ 3.86 µM)
- MIC (A. actinomycetemcomitans [4]; A. actinomycetemcomitans, read-out: MIC): 3.9 µg/mL (≈ 7.72 µM)
- MBC (A. actinomycetemcomitans [5]; A. actinomycetemcomitans, read-out: MBC): 3.9 µg/mL (≈ 7.72 µM)
- MBC (Actinomyces viscosus [6]; A. viscosus, read-out: MBC): 7.8 µg/mL (≈ 15.4 µM)
- MIC (Actinomyces viscosus [7]; A. viscosus, read-out: MIC): 3.9 µg/mL (≈ 7.72 µM)

Molecule: Oc1cc(Cl)ccc1Oc1ccc(Cl)cc1Cl [Triclosan, 5-chloro-2-(2,4-dichlorophenoxy)-phenol]
- MBC (Streptococcus mutans [2]): 15.6 µg/mL (≈ 53.9 µM)
- MIC (Streptococcus mutans [3]): 7.8 µg/mL (≈ 26.9 µM)
- MIC (A. actinomycetemcomitans [4]): < 0.75 µg/mL
- Microbial Biofilm Control (bacteria count after treatment) (A. viscosus): 6.0 × 10^5
- MBC (A. actinomycetemcomitans [5]): < 0.75 µg/mL
- Microbial Biofilm Control (bacteria count after treatment) (S. mutans): 0
- MBC (Actinomyces viscosus [6]): 3.9 µg/mL (≈ 13.5 µM)
- MIC (Actinomyces viscosus [7]): 3.9 µg/mL (≈ 13.5 µM)
- Microbial Biofilm Control (bacteria count after treatment) (A. actinomycetemcomitans [8]): 2.1 × 10^6

Molecule: magnesidin
- LD50 (mice; intraperitoneal): 50 mg/kg
- LD50 (mice; oral or subcutaneous): 1,000 mg/kg
